Read-outs that look alike come from different tables or passages of the source. Values belong to the compound of their own block, whether it stands above or below them.
Tests used:
[1] = type: in vitro ADME, rat; conditions: for % Remaining: rat, plasma
Description: (§1) The plasma stability of compound IB′ was determined using plasma from four species. Results for mouse, rat, dog and human are shown in Tables 5, 6, 7 and 8 respectively. Alvocidib and flumazenil were used as controls. In mouse, rat and human plasma, compound IB′ maintained 100% stability after 5 hour incubation. In dog plasma, approximately 90% of compound IB′ remained after 5 hours.

[2] = Maximum tolerated acute dose in rats
Description: (§2) Acute (i.e. single dose) toxicology studies were performed in rats. Acute studies were performed in female Sprague Dawley rats using three animals per treatment group. […] Body weight measurements following oral dosing (see FIG. 4A), along with mortality, clinical observations, food consumption (see FIG. 4B), and complete blood counts (CBCs; see Table 12) were used to determine the maximum tolerated acute dose (MTDacute).

Dog plasma stability = type: in vitro ADME
Description: as §1

[3] = female SHO SCID mice, single dose
Description: Acute studies were performed in female SHO SCID mice using three animals per treatment group. […] Body weight measurements following oral dosing (FIGS. 2A-B) and intravenous (IV) dosing (FIG. 2C-D) were used, along with mortality and clinical observations to determine the maximum tolerated acute dose (MTDacute).

[4] = rat, in vivo, po
Description: as §2

[5] = CD-1, mouse, in vivo
[6] = for MTDrepeat: female SHO SCID mice, five daily doses
Description: Repeat dose toxicology studies were performed in female SHO SCID mice using 3 animals per treatment group. […] Body weight measurements of animals treated by oral (see FIGS. 3A-B) and intravenous (see FIG. 3C-D) dosing over the course of the 5-day repeat dosing period and subsequent 5-day observation period, along with mortality and clinical observations, were used to determine the maximum tolerated dosing schedule (MTDrepeat).

Human plasma stability = type: in vitro ADME
Description: The plasma stability of compound IB′ was determined using plasma from four species.

[7] = type: in vitro ADME, mouse; conditions: for % Remaining: mouse, plasma
Description: as §1

[8] = Pharmacokinetic profile of alvocidib prodrugs in CD-1 mice (IV/PO)
[9] = rats, single oral dose 36 mg/kg

SMILES: CN1CC[C@H](c2c(O)cc(O)c3c(=O)cc(-c4ccccc4Cl)oc23)[C@H](O)C1 [Alvocidib]
% Remaining ([1]; 0 h): 100.00%
% Remaining ([1]; 0.5 h): 93.12%
% Remaining ([1]; 1 h): 90.20%
% Remaining ([1]; 2 h): 99.31%
% Remaining ([1]; 3 h): 98.69%
% Remaining ([1]; 4 h): 92.57%
NOAEL ([2]; female, Sprague Dawley, rat, in vivo, po): 9 mg/kg
% Remaining (Dog plasma stability; dog plasma, 0 hours): 100.00%
% Remaining (Dog plasma stability; dog plasma, 0.5 hours): 96.41%
% Remaining (Dog plasma stability; dog plasma, 1 hour): 89.16%
% Remaining (Dog plasma stability; dog plasma, 2 hours): 105.76%
% Remaining (Dog plasma stability; dog plasma, 3 hours): 105.84%
% Remaining (Dog plasma stability; dog plasma, 4 hours): 97.65%
% Remaining (Dog plasma stability; dog plasma, 5 hours): 100.40%
% Remaining (Dog plasma stability; dog plasma, 5 hours, listed as alvocidib): 100%
MTDacute ([3]; dosed intravenously): 7.5 mg/kg
MTDacute ([3]; dosed orally): 15 mg/kg
HCT ([4]; 4.5 mg/kg): 43.6%
MCH ([4]; 4.5 mg/kg): 18.7 pg
MCHC ([4]; 4.5 mg/kg): 35.4 g/dL
MCV ([4]; 4.5 mg/kg): 52.7 fL
PLT ([4]; 4.5 mg/kg): 34.7 10^3/μL
RBC ([4]; 4.5 mg/kg): 8.3 10^6/μL
RDWA ([4]; 4.5 mg/kg): 16.0 fL
WBC ([4]; 4.5 mg/kg): 15.4 10^3/μL
platelet counts versus normal range ([4]; 4.5 mg/kg): outside the normal range
HCT ([4]; 9 mg/kg): 47.1%
MCH ([4]; 9 mg/kg): 19.3 pg
MCHC ([4]; 9 mg/kg): 35.7 g/dL
MCV ([4]; 9 mg/kg): 54.0 fL
PLT ([4]; 9 mg/kg): 36.3 10^3/μL
RBC ([4]; 9 mg/kg): 8.7 10^6/μL
RDWA ([4]; 9 mg/kg): 16.2 fL
WBC ([4]; 9 mg/kg): 16.8 10^3/μL
HCT ([4]; 18 mg/kg): 47.3%
MCH ([4]; 18 mg/kg): 19.3 pg
MCHC ([4]; 18 mg/kg): 35.9 g/dL
MCV ([4]; 18 mg/kg): 53.8 fL
PLT ([4]; 18 mg/kg): 36.1 10^3/μL
RBC ([4]; 18 mg/kg): 8.8 10^6/μL
RDWA ([4]; 18 mg/kg): 16.1 fL
WBC ([4]; 18 mg/kg): 16.9 10^3/μL
abnormal food consumption patterns ([4]; 18 mg/kg): abnormal food consumption patterns were observed
diarrhea ([4]; 18 mg/kg): did show signs of diarrhea
Bioavail. [5]: 102 ± 11.7 % F
AUC0-∞ ([5]; iv, 1 mg/kg): 517.0 ± 47.0 ng·h/mL
AUCLast ([5]; iv, 1 mg/kg): 498.0 ± 46.0 ng·h/mL
Clearance ([5]; iv, 1 mg/kg): 31.7 ± 3.3 mL/min/kg
Half life ([5]; iv, 1 mg/kg): 2.0 ± 0.4 h
Vd ([5]; iv, 1 mg/kg): 5.5 ± 1.2 L/kg
VdSS ([5]; iv, 1 mg/kg): 3.8 ± 0.6 L/kg
AUC0-∞ ([5]; po, 10 mg/kg): 5341.1 ± 274.2 ng·h/mL
AUCLast ([5]; po, 10 mg/kg): 5034.1 ± 145.6 ng·h/mL
Half life ([5]; po, 10 mg/kg): 5.7 ± 0.7 h
MTDrepeat ([6]; dosed intravenously): 7.5 mg/kg
MTDrepeat ([6]; dosed orally): 7.5 mg/kg
clinical observations ([6]; mouse, in vivo, 15 mg/kg): Lethargy, body weight loss, and deaths were observed
% Remaining (Human plasma stability; human plasma, 0 hours): 100.00%
% Remaining (Human plasma stability; human plasma, 0.5 hours): 92.61%
% Remaining (Human plasma stability; human plasma, 1 hour): 93.54%
% Remaining (Human plasma stability; human plasma, 2 hours): 93.29%
% Remaining (Human plasma stability; human plasma, 3 hours): 111.62%
% Remaining (Human plasma stability; human plasma, 4 hours): 100.25%
% Remaining (Human plasma stability; human plasma, 5 hours): 100%
% Remaining ([7]; 0 h): 100.00%
% Remaining ([7]; 0.5 h): 93.58%
% Remaining ([7]; 1 h): 103.12%
% Remaining ([7]; 2 h): 97.19%
% Remaining ([7]; 3 h): 117.38%
% Remaining ([7]; 4 h): 115.72%

SMILES: CN1CCC(c2c(OP(=O)(O)O)cc(O)c3c(=O)cc(-c4ccccc4Cl)oc23)C(O)C1 (stereo not drawn) [Compound IB]
clinical observations [2, 9]: Diarrhea, body weight loss and increased lethargy were observed
mortality [2, 9]: one animal died on day three, one animal died on day four, and one animal died on day 5
MTDrepeat ([6]; dosed orally): 7.5 mg/kg

SMILES: C[N+]1(C)CC[C@H](c2c(O)cc(O)c3c(=O)cc(-c4ccccc4Cl)oc23)[C@H](O)C1 [F]
conversion to alvocidib in vivo (alvocidib detected in plasma samples) [8]: did not convert to alvocidib in vivo

The remaining lines, values ahead:

conversion to alvocidib in vivo (alvocidib detected in plasma samples) [8]: did not convert to alvocidib in vivo
SMILES: CN1CC[C@H](c2c(O)cc(O)c3c(=O)cc(-c4ccccc4Cl)oc23)[C@H](OC(=O)C(C)(C)C)C1 [E]

plasma stability (in words) [1]: unstable
% Remaining ([1]; 0 h): 100.00%
% Remaining ([1]; 0.5 h): 42.23%
% Remaining ([1]; 1 h): 16.13%
% Remaining ([1]; 2 h): 1.69%
% Remaining ([1]; 3 h): 0.23%
% Remaining ([1]; 4 h): 0.00%
% Remaining ([1]; 5 h): 0.00%
% Remaining (Dog plasma stability; dog, plasma, 0 h): 100.00%
% Remaining (Dog plasma stability; dog, plasma, 0.5 h): 91.80%
% Remaining (Dog plasma stability; dog, plasma, 1 h): 92.00%
% Remaining (Dog plasma stability; dog, plasma, 2 h): 100.99%
% Remaining (Dog plasma stability; dog, plasma, 3 h): 115.10%
% Remaining (Dog plasma stability; dog, plasma, 4 h): 99.44%
% Remaining (Dog plasma stability; dog, plasma, 5 h): 100.53%
% Remaining (Human plasma stability; human, plasma, 0 h): 100.00%
% Remaining (Human plasma stability; human, plasma, 0.5 h): 96.56%
% Remaining (Human plasma stability; human, plasma, 1 h): 90.83%
% Remaining (Human plasma stability; human, plasma, 2 h): 92.41%
% Remaining (Human plasma stability; human, plasma, 3 h): 117.98%
% Remaining (Human plasma stability; human, plasma, 4 h): 95.32%
% Remaining (Human plasma stability; human, plasma, 5 h): 94.63%
plasma stability (in words) [7]: unstable
% Remaining ([7]; 0 h): 100.00%
% Remaining ([7]; 0.5 h): 29.96%
% Remaining ([7]; 1 h): 10.21%
% Remaining ([7]; 2 h): 1.56%
% Remaining ([7]; 3 h): 0.39%
% Remaining ([7]; 4 h): 0.20%
% Remaining ([7]; 5 h): 0.07%
SMILES: CCOC(=O)c1ncn2c1CN(C)C(=O)c1cc(F)ccc1-2 [Flumazenil]

From patent publication US12338261B2 (SUMITOMO PHARMA ONCOLOGY, INC., priority 2015, dated 2025)
